Test results as given in the supplement of paper PMC10307832.

Experiments:
Assay in all cases: relative viability (nuclei count vs DMSO), 5 days (fraction); higher = more cells survive
[1] = compound: Cc1ccc2nc(NCCN)c3ncc(C)n3c2c1 + CC(=O)Nc1cccc(-n2c(=O)n(C3CC3)c(=O)c3c(Nc4ccc(I)cc4F)n(C)c(=O)c(C)c32)c1 [Trametinib] (partner 0.02 µM)
In short: (§1)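 Relative viability equals treated-well nuclei counts divided by vehicle-well nuclei counts. Counts came from 4× images of lung cancer cell lines grown in 1536-well plates for 5 days after pin-tool dosing on the day after seeding. Dosing used one drug alone or a fixed anchor-drug dose plus five library-drug doses (not always all listed) in √10 steps, and values are medians of duplicate plates.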

[2] = compound: Cc1ccc2nc(NCCN)c3ncc(C)n3c2c1 + CC(=O)c1c(C)c2cnc(Nc3ccc(N4CCNCC4)cn3)nc2n(C2CCCC2)c1=O [Palbociclib] (partner 0.5 µM)
In short: as §1

[3] = compound: Cc1ccc2nc(NCCN)c3ncc(C)n3c2c1 + CC1(C)CCC(c2ccc(Cl)cc2)=C(CN2CCN(c3ccc(C(=O)NS(=O)(=O)c4ccc(N[C@H](CCN5CCOCC5)CSc5ccccc5)c(S(=O)(=O)C(F)(F)F)c4)cc3)CC2)C1 [Navitoclax] (partner 0.5 µM)
In short: as §1

[4] = compound: Cc1ccc2nc(NCCN)c3ncc(C)n3c2c1 + C[C@]1(O)C[C@@H](c2nc(-c3ccc4ccc(-c5ccccc5)nc4c3)c3c(N)nccn32)C1 [Linsitinib] (partner 1 µM)
In short: as §1

| Cell Line | relative viability ([1]; first compound 0.04 µM) | relative viability ([1]; first compound 0.4 µM) | relative viability ([1]; first compound 1.265 µM) | relative viability ([1]; first compound 4 µM) | relative viability ([2]; first compound 0.04 µM) | relative viability ([2]; first compound 0.4 µM) | relative viability ([2]; first compound 1.265 µM) | relative viability ([2]; first compound 4 µM) | relative viability ([3]; first compound 0.04 µM) | relative viability ([3]; first compound 0.1265 µM) | relative viability ([3]; first compound 0.4 µM) | relative viability ([3]; first compound 1.265 µM) | relative viability ([3]; first compound 4 µM) | relative viability ([4]; first compound 0.04 µM) | relative viability ([4]; first compound 0.1265 µM) | relative viability ([4]; first compound 0.4 µM) | relative viability ([4]; first compound 1.265 µM) | relative viability ([4]; first compound 4 µM) | relative viability ([1]; first compound 0.1265 µM) | relative viability ([2]; first compound 0.1265 µM) |
| --- | --- | --- | --- | --- | --- | --- | --- | --- | --- | --- | --- | --- | --- | --- | --- | --- | --- | --- | --- | --- |
| NCI-H727 | 0.453 | 0.398 | 0.383 | 0.435 | 0.648 | 0.603 | 0.691 | 0.722 | 0.379 | 0.475 | 0.41 | 0.238 | 0.413 | 0.322 | 0.352 | 0.285 | 0.308 | 0.338 |  |  |
| EBC-1 |  |  |  |  |  |  |  |  | 0.388 | 0.393 | 0.327 | 0.334 | 0.191 | 1.08 | 1.13 | 0.874 | 0.866 | 0.793 |  |  |
| NCI-H2342 | 0.822 | 0.821 | 0.917 | 0.849 | 0.626 | 0.479 | 0.532 | 0.531 |  |  |  |  |  |  |  |  |  |  | 0.805 | 0.552 |
| NCI-H358 | 0.133 | 0.13 | 0.137 | 0.129 | 0.122 | 0.123 | 0.145 | 0.131 |  |  |  |  |  | 0.755 | 0.769 | 0.694 | 0.88 | 0.665 | 0.153 | 0.121 |
| NCI-H1563 |  |  |  |  |  |  |  |  |  |  |  |  |  | 1.31 | 1.02 | 1.1 | 1.39 | 1.21 |  |  |
| NCI-H1299 |  |  |  |  |  |  |  |  | 1.02 | 1.04 | 1.06 | 1.02 | 0.898 | 1.01 | 0.925 | 0.962 | 0.979 | 0.924 |  |  |
| NCI-H650 | 1.03 | 1.07 | 0.955 | 0.864 | 0.368 | 0.258 | 0.304 | 0.332 |  |  |  |  |  | 0.852 | 0.828 | 0.994 | 0.911 | 0.69 | 0.911 | 0.316 |
| NCI-H661 | 0.579 | 0.567 | 0.574 | 0.544 | 0.423 | 0.407 | 0.439 | 0.477 |  |  |  |  |  | 0.644 | 0.511 | 0.449 |  | 0.543 | 0.57 | 0.452 |
| NCI-H522 | 0.641 | 0.791 | 0.719 | 0.684 | 0.83 | 1.01 | 1.04 | 0.87 |  |  |  |  |  |  |  |  |  |  | 0.753 | 1.17 |
| A549 |  |  |  |  |  |  |  |  | 1.27 | 1.25 | 1.37 | 1.2 | 0.955 | 0.791 | 0.557 | 0.598 | 0.423 | 0.534 |  |  |
| NCI-H1648 | 0.434 | 0.434 | 0.419 | 0.358 | 0.272 | 0.237 | 0.25 | 0.282 |  |  |  |  |  |  |  |  |  |  | 0.433 | 0.27 |
| SW 900 |  | 0.827 | 0.749 | 0.621 |  | 0.587 | 0.464 | 0.589 |  |  |  |  |  |  |  |  |  |  | 0.901 | 0.522 |
| IA-LM |  |  |  |  |  |  |  |  | 0.792 | 0.779 | 0.707 | 0.623 | 0.587 | 0.825 | 0.559 | 0.542 | 0.658 | 0.495 |  |  |
| ChaGo-K-1 | 0.884 | 0.904 | 0.849 | 0.77 | 0.929 | 0.919 | 0.891 | 0.907 | 0.983 | 1.15 | 0.913 | 0.976 | 0.782 |  |  |  |  |  | 0.924 | 0.919 |
| ABC-1 |  |  |  |  | 0.785 | 0.887 | 0.649 | 0.538 |  |  |  |  |  | 0.95 | 0.806 | 0.812 | 0.818 | 0.594 |  | 0.792 |
